Laboratory results: the supplement of paper PMC10702517
± gives the standard deviation.

Columns and labels:
[1] = chemical recovery from spiked human plasma; higher = better extraction; settings: pooled human plasma
[2] = chemical recovery by SPE of plasma after PDMS sampling; higher = better extraction; settings: pooled human plasma, extraction method: HLB SPE of plasma after PES
[3] = extraction method: SPE only (HLB 96-well), PES comparison experiment
[4] = extraction method: solvent precipitation (ACN + hexane)
[5] = extraction method: PES+SPE (3 d PDMS equilibration then HLB SPE)
[6] = extraction method: SPE only (HLB 96-well)
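For chemical recovery by SPE of plasma after PDMS sampling in this document: over 400 spiked chemicals quantified by LC-HRMS or GC-HRMS via internal standard calibration, recovery relative to spike mix added to unspiked plasma extract to correct matrix effects.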

SMILES | chemical recovery [1, 3] | chemical recovery [1, 4] | chemical recovery by SPE of plasma ([2]; equilibration time (d): 1) | chemical recovery by SPE of plasma ([2]; equilibration time (d): 3) | chemical recovery by SPE of plasma ([2]; equilibration time (d): 6) | chemical recovery [1, 5] | chemical recovery [1, 6]
CCCCCCCCCCCCCC(=O)NCCC[N+](C)(C)CCCS(=O)(=O)[O-] [Amidosulfobetaine-14] | 36 ± 9.4% | 74.8 ± 5% | 25.7 ± 5.3% | 26.1 ± 6.5% | 25.2 ± 4.2% | – | –
COc1cc(OC)nc(NC(=O)NS(=O)(=O)N(C)S(C)(=O)=O)n1 [Amidosulfuron] | 49.1 ± 5.6% | 70.2 ± 3.1% | 46.5 ± 7.7% | 49.1 ± 5.5% | 45.9 ± 6.6% | 46.6 ± 16% | 41 ± 4.5%
Brc1ccc(Oc2ccc(Br)cc2Br)c(Br)c1 [BDE47] | – | – | 1.38 ± 1% | 1.56 ± 0.066% | 1.34 ± 0.21% | – | –
CC(C)N1C(=O)c2ccccc2NS1(=O)=O [Bentazone] | 63.8 ± 5.6% | 75.2 ± 2.8% | 54.8 ± 8.1% | 58 ± 4.1% | 54.7 ± 3.1% | 44.5 ± 3.6% | 41.7 ± 3.2%
Nc1ccc(-c2ccc(N)cc2)cc1 [Benzidine] | 5.89 ± 3% | 38.3 ± 7.4% | 6.25 ± 0.9% | 6.11 ± 1.1% | 3.81 ± 0.98% | 0.64 ± 0.073% | 13.2 ± 2%
c1ccc2c(c1)cc1ccc3cccc4ccc2c1c34 [Benzo(a)pyrene] | – | 99.1 ± 12% | 1.26 ± 1.1% | – | – | – | 4.36 ± 4%
CN1COCN(Cc2cnc(Cl)s2)/C1=N\[N+](=O)[O-] [Thiamethoxam] | – | 73 ± 2.7% | – | – | – | 55.7 ± 4.8% | 50 ± 3.5%
COP(=S)(OC)Oc1c(Cl)cc(C)cc1Cl [Tolclofos-methyl] | – | 62 ± 6.2% | – | – | – | – | 33.8 ± 9.1%
COc1cccc([C@@]2(O)CCCC[C@@H]2CN(C)C)c1 [Tramadol] | – | – | – | – | – | 31.3 ± 3.1% | 31.2 ± 2.6%
C[C@]12C=CC3=C4CCC(=O)C=C4CCC3C1CC[C@@H]2O (stereo partly specified) [Trenbolone] | 47.4 ± 6.8% | – | – | – | – | – | –
O=C(O)COc1nc(Cl)c(Cl)cc1Cl [Triclopyr] | – | 70.3 ± 2.9% | – | – | – | 43 ± 3.5% | 37 ± 3.9%
COP(=O)(OC)OC [Trimethylphosphate] | – | 0.912 ± 1.3% | – | – | – | – | 3.11 ± 2.1%
O=P(OCC(Br)CBr)(OCC(Br)CBr)OCC(Br)CBr (stereo unspecified) [Tris(2,3-dibromopropyl)phosphate] | – | – | – | – | – | 60.7 ± 8% | 14.8 ± 3.3%
CC(C)(c1ccccc1)c1cc(-n2nc3ccccc3n2)c(O)c(C(C)(C)c2ccccc2)c1 [UV-234] | – | – | – | – | – | – | 0.688 ± 0.28%
CC(C)(C)c1cc(-n2nc3ccccc3n2)c(O)c(C(C)(C)C)c1 [UV-320] | – | – | – | – | – | – | 3.34 ± 1%
CC(C)(C)c1cc(-n2nc3ccc(Cl)cc3n2)c(O)c(C(C)(C)C)c1 [UV-327] | – | – | – | – | – | – | 1.82 ± 1.6%
CCC(C)(C)c1cc(-n2nc3ccccc3n2)c(O)c(C(C)(C)CC)c1 [UV-328] | – | – | – | – | – | – | 1.74 ± 0.56%
CC(C)(C)CC(C)(C)c1cc(-n2nc3ccccc3n2)c(O)c(C(C)(C)c2ccccc2)c1 [UV-928] | – | – | – | – | – | – | 0.72 ± 0.29%
O=S1OC[C@@H]2[C@H](CO1)[C@@]1(Cl)C(Cl)=C(Cl)[C@]2(Cl)C1(Cl)Cl (stereo partly drawn) [alpha-Endosulfan] | – | 13.6 ± 2.6% | – | – | – | – | 0.649 ± 0.17%
Cl[C@H]1[C@H](Cl)[C@@H](Cl)[C@H](Cl)[C@@H](Cl)[C@H]1Cl [delta-HCH] | 40.6 ± 13% | – | – | – | – | – | –
COc1cc(-c2ccc(N)c(OC)c2)ccc1N [o-Dianisidine] | – | 46.7 ± 7.3% | – | – | – | 0.374 ± 0.16% | 15.5 ± 3%

Next, values leading:

chemical recovery [1, 3] | chemical recovery [1, 4] | chemical recovery by SPE of plasma ([2]; equilibration time (d): 1) | chemical recovery by SPE of plasma ([2]; equilibration time (d): 3) | chemical recovery by SPE of plasma ([2]; equilibration time (d): 6) | chemical recovery [1, 5] | chemical recovery [1, 6] | SMILES
– | 20.2 ± 2.8% | – | 8.41 ± 7.3% | 4.31 ± 7.5% | – | 1.06 ± 0.29% | c1ccc2cc3c(ccc4ccccc43)cc2c1 [Benz(a)anthracene]
– | 57.7 ± 6.1% | 1.45 ± 1.3% | 1.37 ± 1.2% | 1.06 ± 1.8% | – | 2.35 ± 0.68% | c1ccc2c(c1)c1cccc3ccc4cccc2c4c31 [Benzo(e)pyrene]
– | – | 2.59 ± 4.5% | 1.28 ± 1.1% | 1.37 ± 0.46% | – | – | c1cc2ccc3ccc4ccc5cccc6c(c1)c2c3c4c56 [Benzo(ghi)perylene]
44.4 ± 4.8% | 72.2 ± 2.3% | 41 ± 11% | 48.7 ± 3.4% | 43.3 ± 4.4% | 45.5 ± 3.2% | 43.3 ± 3.8% | COc1cc(O)c(C(=O)c2ccccc2)cc1S(=O)(=O)O [Benzophenone-4]
– | – | 1.57 ± 0.15% | 1.3 ± 0.43% | 1.16 ± 0.33% | – | – | c1ccc2c(c1)-c1ccc3ccc4cccc5cc-2c1c3c45 [Indeno(1,2,3-cd)pyrene]
– | 47.5 ± 1.9% | – | – | – | 56.7 ± 5.2% | 36.5 ± 12% | Cc1c(Cl)cccc1Nc1ccccc1C(=O)O [Tolfenamic-acid]
– | – | – | – | – | 7.98 ± 1.3% | 18.7 ± 3.8% | CS(=O)(=O)OC[C@H](O)[C@@H](O)COS(C)(=O)=O [Treosulfan]
– | – | – | – | – | – | 30.3 ± 3.4% | CC(=O)OCC(COC(C)=O)OC(C)=O [Triacetin]
47.3 ± 4.9% | – | – | – | – | – | – | CC1(C)O[C@@H]2C[C@H]3[C@@H]4CCC5=CC(=O)C=C[C@]5(C)[C@@]4(F)[C@@H](O)C[C@]3(C)[C@]2(C(=O)CO)O1 [Triamcinolone acetonide]
– | – | – | – | – | 165 ± 16% | 109 ± 30% | CCCCOCCOCCOCCO [Triethylene-Glycol-Monobutyl-Ether]
– | – | – | – | – | – | 24.9 ± 4.5% | COCCOCCOCCOC [Triglyme]
48 ± 6.2% | 72.5 ± 4.2% | – | – | – | 39.2 ± 3.2% | 45 ± 1.5% | COc1cc(Cc2cnc(N)nc2N)cc(OC)c1OC [Trimethoprim]
– | 12.5 ± 2.5% | – | – | – | 24.5 ± 2.7% | 30.7 ± 4.5% | COC(=O)CC(O)(CC(=O)OC)C(=O)OC [Trimethylcitrate]
45.7 ± 6.1% | 72.1 ± 3% | – | – | – | 38.7 ± 3.8% | 35 ± 2.5% | CCCCCCCC[N+](C)(C)C [Trimethyloctylammonium]
– | 2.09 ± 3.1% | – | – | – | – | 7.35 ± 6.9% | CCCN(CCC)CCC [Tripropylamine]
– | – | – | – | – | – | 3.25 ± 5.6% | O=c1n(CC(Br)CBr)c(=O)n(CC(Br)CBr)c(=O)n1CC(Br)CBr (stereo unspecified) [Tris(2,3-dibromopropyl)isocyanurate]
4.16 ± 1.6% | 107 ± 4.1% | – | – | – | – | 6.76 ± 2.9% | CCCCC(CC)COP(=O)(OCC(CC)CCCC)OCC(CC)CCCC (stereo unspecified) [Tris(2-ethylhexl)phosphate]
– | 76.1 ± 3.9% | – | – | – | 72.3 ± 6.7% | 67.7 ± 4.7% | COc1nc(NC(=O)NS(=O)(=O)c2ccccc2C(F)(F)F)nc(C(F)(F)F)n1 [Tritosulfuron]
– | – | – | – | – | – | 0.287 ± 0.085% | CCCCCCCCOc1ccc(-c2nc(-c3ccc(C)cc3C)nc(-c3ccc(C)cc3C)n2)c(O)c1 [UV-1164]
– | – | – | – | – | – | 26.5 ± 9.6% | CCCCCCOC(=O)c1ccccc1C(=O)c1ccc(N(CC)CC)cc1O [Uvinul-A-Plus]
– | – | – | – | – | 31.3 ± 3.1% | 31.2 ± 2.6% | CN(C)CC(c1ccc(O)cc1)C1(O)CCCCC1 (stereo unspecified) [Venlafaxine-O-desmethyl]
– | – | – | – | – | – | 91 ± 13% | Cc1ccc(OS(=O)(=O)O)cc1 [p-Tolylsulfate]
– | – | – | – | – | – | 14.3 ± 7.5% | C/C(=C\c1ccccc1)c1ccccc1 [trans-a-Methylstilben]
